In patent publication US11174216B2, “Lipids that increase insulin sensitivity and methods of using the same” (Beth Israel Deaconess Medical Center, Inc., priority 2012, dated 2021):
Blank lines part the entries; values can stand above or below the compound they belong to.

Tests used:
STC-1 cells [1] = experiment: GLP-1 secretion in STC-1 enteroendocrine cells (ELISA); format: cell-based
Description: For the experiments summarized in FIG. 51 STC-1 cells were incubated with vehicle (DMSO), 9-PAHSA, 5-PAHSA or 9-OAHSA at the indicated concentrations or lineolic acid (100 uM) as a positive control. Media was harvested and GLP-1 was measured by ELISA.
For the experiments summarized in FIG. 52, the same protocol as described for FIG. 51 was used, except in this experiment a time course was performed. For both FIG. 51 and FIG. 52, for GLP-1 secretion STC1 cells were washed 3× with serum free culture media followed by stimulation with FAHFAs or vehicle at the indicated concentrations and timepoints. Levels of active GLP-1 were measured by ELISA.

STC-1 cells [2] = experiment: ERK phosphorylation in STC-1 cells (immunoblot); format: cell-based; details: 15 minutes
Description: For the experiments summarized in FIG. 50, STC-1 cells were incubated with 9-PAHSA, 5-PAHSA or 9-OAHSA at the indicated concentrations. Cells were harvested and lysed and proteins were separated by SDS PAGE and transferred onto nitrocellulose filters. The phosphorylation of ERK and the amount of total ERK was determined by immunoblotting with antibodies specific for total or phosphor-ERK. DMSO was the control. For ERK phosphorylation, cells were serum deprived overnight and stimulated with FAHFAs or vehicle as indicated for 15 minutes followed by lysis in RIPA buffer and analysis by SDS-PAGE

GPR120 = target: T1, GPR120 (Homo sapiens, UniProt Q5NUL3); experiment: PATHHUNTER beta-Arrestin GPCR assay; format: cell-based
T1 sequence (Q5NUL3 1-361): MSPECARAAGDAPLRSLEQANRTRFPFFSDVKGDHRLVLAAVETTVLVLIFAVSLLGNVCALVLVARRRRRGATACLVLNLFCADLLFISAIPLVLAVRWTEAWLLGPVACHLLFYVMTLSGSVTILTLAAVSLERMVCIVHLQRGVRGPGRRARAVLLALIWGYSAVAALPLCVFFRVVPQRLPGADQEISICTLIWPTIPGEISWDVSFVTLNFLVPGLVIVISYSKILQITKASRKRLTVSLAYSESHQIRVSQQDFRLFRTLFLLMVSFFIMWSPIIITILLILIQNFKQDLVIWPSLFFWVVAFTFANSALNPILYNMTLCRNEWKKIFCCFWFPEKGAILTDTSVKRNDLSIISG
Excerpt: For the experiments summarized in FIGS. 53-55, the fragment based GPCR assay from DiscoveRx (PATHHUNTER® β-Arrestin assay) was used to as per manufacturer's instructions to determine activation of specific GPCRs as indicated in FIGS. 53-55.

[3] = system: FA-CoA:HFA acyltransferase activity; experiment: FAHFA biosynthesis (FA-CoA:HFA acyltransferase) assay in tissue lysates; format: biochemical; details: 10 uM 9-HSA and oleoyl-CoA, increasing doses
Description: In order to understand the biology of the new FAHFA lipid class more completely, experiments were performed to identify an enzyme capable of synthesizing FAHFAs as well. By structural analogy to other lipid metabolites such as diacylglycerols or wax esters, it was hypothesized that hydroxy fatty acids were the immediate precursors to FAHFAs. Candidate acyltransferases were identified by reacting the common biochemical acyl carrier, oleoyl-CoA, with 9-hydroxystearic acid (9-HSA) in the presence of cell lysates or tissue membrane lysates to form 9-OAHSA (Scheme 2; FIG. 61 ).
After first establishing that FA-CoA:HFA acyltransferase activity was membrane-localized in liver (not shown), we isolated membrane fractions from liver or WAT tissue lysate by ultracentrifugation, then resuspended the pellets in PBS buffer and diluted to 1 mg/ml protein concentration. […] The reaction mixtures were extracted with ethyl acetate, concentrated, and reconstituted in 1:1 chloroform:methanol for MS analysis. Formation of 9-OAHSA was measured by MS/MS, with which the appearance of the parent ion m/z 563 was monitored.
In light of the above results acyltransferase families that have been reported to have a membrane-bound localization and to have the ability to conjugate FA-CoA to a hydrophobic alcohol were targeted. […]

HepG2 cells = experiment: PPAR agonist studies, FAHFA levels in HepG2 cells; format: cell-based; details: 0.5 uM and 1.0 uM, 48 hr, cells and media
Description: In this example, HepG2 cells were seeded in 6-well plates. At 80% confluence, cells were treated with two different concentrations [0.5 uM and 1.0 uM] of an agonist of PPAR α (WY14643), δ (CAY10592), or γ (Pioglitazone) for 48 hr in HepG2 media with 2.5% FBS. At the end of incubation, 500 uL of media was collected and the cells were collected in PBS for lipid extraction. Lipids were extracted from both media and cells to quantitate the FAHFA levels by Mass Spec. The results are summarized in FIGS. 33 and 34 for the cells and media, respectively.
HepG2 cells were seeded in 6-well plate. At 80% confluence, cells were treated with two different concentrations [0.5 μM and 1.0 μM] of PPAR α/δ/γ agonists for 48 h in HepG2 media containing 2.5% fetal bovine serum (PPAR α agonist—WY14643; PPAR δ agonist—CAY10592; PPAR γ agonist—Pioglitazone). At the end of incubation, 500 μL of media and the cells were collected in PBS. Lipids were extracted as per Folch Method from both media and cells to quantitate the FAHFA levels by Mass Spec. Briefly, chloroform and methanol were added to the media or cells in 2:1 ratio and sonicated for 2-3 min and centrifuged at 3000 rpm for 10 min at 4° C. […] Calculated volume of chloroform is added to the dissolve the lipids and 2 μL of injection volume was used to analyze FAHFAs through Mass spec. […]

[4] = system: FAHFA hydrolysis activity in pancreas membrane lysate; experiment: FAHFA hydrolysis activity assay, pancreas membrane lysate; details: pancreas lysate
[5] = system: FAHFA hydrolysis activity in liver lysate
[6] = system: carboxyl ester lipase (CEL)

activation of GPR120 (GPR120): but not 9OAHSA, activate GPR120
Compound: CCCCCCCC/C=C\CCCCCCCC(=O)OC(CCCCCCCCC)CCCCCCCC(=O)O (stereo not shown) [9-OAHSA]
GLP-1 secretion (STC-1 cells [1]): induce GLP-1 secretion
ERK phosphorylation (STC-1 cells [2]): induce ERK phosphorylation

9-OAHSA levels (FAHFA production) [3]: no change
Compound: O=C(Nc1ccccc1)Nc1ccc(-c2ccc(C(=O)[C@@H]3CCC[C@H]3C(=O)O)cc2)cc1 [A922500]

Compound: O=C(O)COc1ccc(SCC=C(c2ccc(Br)cc2)c2ccc(Br)cc2)cc1Cl [CAY10592]
FAHFA production in liver cells (HepG2 cells): stimulate FAHFA production

9-OAHSA levels (FAHFA production) [3]: no change
Compound: CCCCCCCCCCC(C)(C)C(=O)Nc1c(OC)cc(OC)cc1OC [CI976]

Compound: C[C@H](CCC(=O)NCCS(=O)(=O)O)[C@H]1CC[C@H]2[C@@H]3[C@H](O)C[C@@H]4C[C@H](O)CC[C@]4(C)[C@H]3C[C@H](O)[C@]12C [NaTC, sodium taurocholate, reference compound]
effect on FAHFA hydrolysis [4]: markedly increased
effect on FAHFA hydrolysis [5]: not enhanced
effect on FAHFA hydrolysis [6]: enhanced

Compound: Cc1cccc(Nc2cc(Cl)nc(SCC(=O)O)n2)c1C [WY14643]
FAHFA production in liver cells (HepG2 cells): stimulate FAHFA production
